Reference: patent US10928381B2, “In vitro methods of monitoring autophagy in a human cell using a photoconvertable fluorescent protein linked biomarker” (The Regents of the University of Michigan, priority 2018, dated 2021)

Columns and labels:
Dendra2-LC3 HEK cells [1] = test: Optical pulse labeling: time-dependent decay of photoconverted (red, RFP/TRITC) Dendra2-LC3 as measure of autophagic flux; format: cell-based, human; design: key to Hit class in screen of Enzo Autophagy compound library (9H RFP/0H RFP): enhancer: [Sample9H RFP/OH RFP]<[DMSO9H RFP/OH RFP−3SDDMSO]; inhibitor: [Sample9H RFP/OH RFP]>[DMSO9H RFP/OH RFP 3SDDMSO]; settings: for Hit class in screen of Enzo Autophagy compound library (9H RFP/0H RFP): 10 uM, 9 hours after drug addition; for Phase II result, Dendra2-LC3 degradation kinetics: in comparison to DMSO
Experimental: FIGS. 8A-E. Time dependent decay of Dendra2-LC3 as an assay of autophagic flux. (FIG. 8A) Dendra2-LC3 reporter cells were imaged prior to photoconversion to measure background TRITC intensity. Immediately following photoconversion with a 5 second pulse of […] light, cells were treated with DMSO, 1 uM Torin1, or 10 nM Bafilomycin-A1 and then were subsequently imaged at the indicated time points. Images are psuedocolored to better highlight intensity differences. (FIGS. 8B-E) Time dependent changes in photoconverted Dendra2-LC3 fluorescence in the TRITC (FIGS. 8B, D) and GFP (FIGS. 8C, E) channels. Gray boxes represent the pre and post-photoconversion time points. TRITC intensity values are normalized, setting the background intensity prior to conversion to 0 and the post-conversion value to 1. GFP values are normalized to the pre-conversion intensity. Error bars represent the SEM from three replicate experiments. […] (FIG. 8C) Following photoconversion there is a 40% drop in GFP intensity. As new Dendra2-LC3 is synthesized, GFP levels return to pre-photoconversion levels over the span of 13.5 hours. […] Cells were transfected with 20 nM ATG5 siRNA two days prior to imaging.
FIG. 9A-C. Evaluating the efficacy of known autophagy modulators. (FIG. 9A) An unbiased screen of the Enzo Autophagy compound library identified several known autophagy compounds as hits providing construct validity to the assay. Rapamycin, NVP-BEZ235 and AKT inhibitor X, were among the compounds appropriately identified as enhancers while Bafilomycin registered as an inhibitor. […] Cells were imaged in RFP to measure background fluorescence, then photoconverted with a 4 second DAPI exposure and immediately imaged again to establish the postconversion intensity. Drugs from the Enzo Autophagy library were added at a concentration of 10 uM via a robotic liquid handler. 9 hours later the cells were imaged again in order to assess the efficacy of the drugs. Hits were defined as follows: enhancer: [Sample9H RFP/OH RFP]<[DMSO9H RFP/OH RFP−3SDDMSO], inhibitor: [Sample9H RFP/OH RFP]>[DMSO9H RFP/OH RFP 3SDDMSO]. […] Imaging of the compound library was repeated in GFP. Intensity values are reported 15 hours after drug treatment. (FIG. 9C) The reduction in Dendra2-LC3 half-life observed upon treatment of autophagic flux enhancers is attenuated with partial knockdown of ATG5. Cells were transfected with 20 nM ATG5 siRNA 2 days prior to imaging. Error bars represent SEM from three replicate experiments.
Experiments were conducted during development of embodiments herein to develop a sensitive method—optical pulse labeling (OPL)—that takes advantage of the photoconvertible fluorescent protein Dendra2 for estimations of autophagic flux in cellulo (Refs 14, 34; herein incorporated by reference in their entireties) (FIG. 1b). […] Dendra2 was fused to LC3, a specific marker of autophagosomes and itself an autophagy substrate (Refs. 27, 31; herein incorporated by reference in their entireties). Following photoconversion, the time-dependent reduction in red LC3-Dendra2 (FIG. 1c) is used to calculate protein half-life, representing an estimate of autophagy flux for individual cells (Refs. 14, 34; herein incorporated by reference in their entireties) Furthermore, because LC3 is degraded as autophagosomes mature, the return to steady-state levels of green Dendra2-LC3 after photoconversion (FIG. 1d) reflects activity within the pathway as a whole. The assay is noninvasive, permitting longitudinal analyses of autophagy kinetics in living cells, and amenable to HTS.
For these studies the potent mTOR inhibitor torin1 (Ref. 36; herein incorporated by reference in its entirety) was selected as a positive control for autophagy induction, and the vacuolar ATPase inhibitor bafilomycin-A1 (Ref. 37; herein incorporated by reference in its entirety) as a positive control for autophagy inhibition. In each case, DMSO served as a vehicle (negative) control. […]

Dendra2-LC3 HEK cells [2] = test: Native (green, GFP) Dendra2-LC3 intensity and puncta, phase I primary screen readout (T15/T0); format: cell-based, human; settings: for Phase I result, normalized GFP intensity (T15/T0): 15 h
Source text: Conventional methods for estimating autophagy flux rely upon the assessment of LC3 or other autophagy substrates by Western blotting or immunocytochemistry (Ref. 27; herein incorporated by reference in its entirety); by their very nature, these techniques are static and limited to dead cells. Fluorescence-based methods that use tagged substrates allow visualization of autophagy within living cells, but typically require the overexpression of autophagy target proteins that may disrupt the very process they are intended to measure. To assess autophagy in human cells without compromising or interfering with the pathway, experiments were conducted during development of embodiments herein utilizing CRISPR/Cas9 genome editing (Refs. 29-30; herein incorporated by reference in their entireties) to insert the Dendra2 open reading frame into the MAP1LC3B locus (encoding LC3) of HEK cells (FIG. 2a). A mutated, nickase version of Cas9 (Cas9n) was used that is incapable of making double-stranded DNA breaks, thereby minimizing the risk of non-homologous end joining and unwanted insertions or deletions (Refs. 29, 35; herein incorporated by reference in their entireties). Two separate single guide RNAs (sgRNAs) were designed that recognize sequences just upstream and downstream of the MAP1LC3B start codon, and a homology directed repair (HDR) vector encoding the Dendra2 open reading frame flanked by 400 bp of homologous sequence surrounding the MAP1LC3B start codon (FIG. 2a). Following expression of the sgRNAs, Cas9n and the HDR in HEK cells, colonies were selected based upon green fluorescence and passaged to homogeneity (FIG. 2b). The insertion site was confirmed by DNA sequencing, PCR, and immunocytochemistry using antibodies that recognize LC3. Providing further validation of the insertion, transfection with siRNA directed against the MAP1LC3B locus elicited a significant reduction in Dendra2-LC3 protein levels as measured by western blotting and native GFP fluorescence (FIG. 2c, d). In untreated cells, Dendra2-LC3 fluorescence appears diffuse, as expected (FIG. 3a). […] Second, autophagy induction in these cells is accompanied not only by the formation of puncta, but also by relative decreases in diffuse Dendra2-LC3 fluorescence, as indicated by the model in FIG. 1.
For these studies the potent mTOR inhibitor torin1 (Ref. 36; herein incorporated by reference in its entirety) was selected as a positive control for autophagy induction, and the vacuolar ATPase inhibitor bafilomycin-A1 (Ref. 37; herein incorporated by reference in its entirety) as a positive control for autophagy inhibition. In each case, DMSO served as a vehicle (negative) control. Dendra2-LC3 was photoconverted immediately prior to drug application, and the fluorescence intensity in the green (GFP) and red (RFP) channels was measured at regular intervals for 15 h.
The Z′ value for the effect of torin1 on the normalized GFP intensity, calculated as a ratio of GFP intensity at 15 h to that at 0 h (T15/T0), was 0.63 when the assay was conducted in a 96-well format in our laboratory, and 0.56 when conducted in a 384-well format at the Center for Chemical Genomics (CCG, FIG. 3e), indicative of a robust screening platform (Ref. 38; herein incorporated by reference in its entirety). […] The false negative rate was near zero, ensuring a highly sensitive assay.
The possibility that cell death and toxicity mimics the reduction in GFP intensity that would otherwise denote autophagy induction was also addressed. To avoid confounding from toxicity, the area occupied by cells in each image is calculated using ImageJ software and used as a proxy for cell number; since all wells received the same number of cells, >25% reductions in the area occupied by cells at the end of the experiment indicates toxicity. The formation of Dendra2-LC3 puncta in each condition is scored simultaneously using the ‘analyze particles’ function in ImageJ. […]

[3] = system: primary rat cortical neurons overexpressing WT-TDP43-GFP; test: Survival of primary neurons overexpressing TDP43, automated fluorescence microscopy; format: cell-based; settings: 25 nM
[4] = system: Tandem reporter (RFP-GFP-LC3) HeLa cells; test: Tandem reporter (RFP-GFP-LC3) assay, % of RFP puncta that are GFP positive; format: cell-based; settings: imaged after 12 hours
Experimental: FIG. 13A-E. Validation of novel autophagy inhibitors with an independent measure of autophagic flux. (FIG. 13A) Tandem reporter (RFP-GFP-LC3) HeLa cells treated with the indicated compounds and imaged after 12 hours in RFP (middle panels) GFP (bottom panels). […] Concentrations used correspond to the lowest dose resulting in the maximum degree of colocalization between GFP and RFP puncta as calculated in (B). These are: 3 nM Bafilomycin, 1 uM Quinacrine, 50 uM 245536, and 100 uM of 254522, 45808, 234794, and 237373. (Scale bar: 50 μm) (FIG. 13B) The percentage of RFP positive puncta that are also GFP positive in tandem reporter HeLa cells was analyzed using Cell Profiler. First GFP (1a) and RFP (1b) images of the same field of cells are uploaded into Cell Profiler. Using the GFP images, nuclei are identified (2a-green outlines) and a nuclear mask (2b) is generated. […] Cellular boundries are identified (3a-purple outlines) and a cellular mask is created. […] Only puncta within this mask will be evaluated in subsequent steps. […] (FIG. 13D) Tandem reporter HeLa cells were imaged once prior to drug treatment and then treated with the lowest dose that produced the maximum response as calculated in (FIG. 13C) and imaged immediately after. […] Each point is calculated by taking the mean % of (GFP+/RFP+ puncta)/(RFP+) from 8 technical replicates. […]

CCN(CC)CCCCN1c2ccccc2Oc2ccc(Cl)cc21 [AKT inhibitor X]
Hit class in screen of Enzo Autophagy compound library (9H RFP/0H RFP) (Dendra2-LC3 HEK cells [1]): enhancer
Phase I result, normalized GFP intensity (T15/T0) (Dendra2-LC3 HEK cells [2]; Prestwick and Enzo collections): autophagy inducers

OCCN1CCN(CCCN2c3ccccc3Sc3ccc(C(F)(F)F)cc32)CC1 [Fluphenazine]
Formation of Dendra2-LC3 (LC3-positive) puncta (Dendra2-LC3 HEK cells [2]; FPZ 0.5 μM, torin1 1 μM): elicits the formation of LC3-positive puncta
GFP intensity of native Dendra2-LC3 (Dendra2-LC3 HEK cells [2]; FPZ 0.5 μM, torin1 1 μM, vs DMSO): reduces the steady-state GFP intensity

Cn1c(=O)n(-c2ccc(C(C)(C)C#N)cc2)c2c3cc(-c4cnc5ccccc5c4)ccc3ncc21 [NVP-BEZ235]
Hit class in screen of Enzo Autophagy compound library (9H RFP/0H RFP) (Dendra2-LC3 HEK cells [1]): enhancer
Rank among autophagy inducers in phase I (Dendra2-LC3 HEK cells [2]; Prestwick and Enzo collections): rank among the most potent inducers
Effect on TDP43 toxicity [3]: suppresses toxicity
Hazard ratio, Cox proportional hazards analysis ([3]; p<0.05): 0.89

CCN(CC)CCCC(C)Nc1c2ccc(Cl)cc2nc2ccc(OC)cc12 (stereo not drawn) [Quinacrine]
Lowest dose resulting in the maximum degree of colocalization between GFP and RFP puncta [4]: 1 µM

CO[C@H]1C[C@@H]2CC[C@@H](C)[C@@](O)(O2)C(=O)C(=O)N2CCCC[C@H]2C(=O)O[C@H]([C@H](C)C[C@@H]2CC[C@@H](O)[C@H](OC)C2)CC(=O)[C@H](C)/C=C(\C)[C@@H](O)[C@@H](OC)C(=O)[C@H](C)C[C@H](C)/C=C/C=C/C=C/1C [Rapamycin]
Hit class in screen of Enzo Autophagy compound library (9H RFP/0H RFP) (Dendra2-LC3 HEK cells [1]): enhancer

O=C(CCCCCN1C(=O)c2cccc3cccc(c23)C1=O)NO [Scriptaid]
Phase II result, Dendra2-LC3 degradation kinetics (Dendra2-LC3 HEK cells [1]): significantly slowed Dendra2-LC3 degradation
Phase I result, normalized GFP intensity (T15/T0) (Dendra2-LC3 HEK cells [2]; Prestwick and Enzo collections): significant increases in Dendra2-LC3 GFP fluorescence

NC(=O)N1c2ccccc2C=Cc2ccccc21 [carbamazepine]
Hit class in screen of Enzo Autophagy compound library (9H RFP/0H RFP) (Dendra2-LC3 HEK cells [1]): failure to markedly affect flux
Phase II result, Dendra2-LC3 degradation kinetics (Dendra2-LC3 HEK cells [1]): significantly slowed Dendra2-LC3 degradation
Phase I result, normalized GFP intensity (T15/T0) (Dendra2-LC3 HEK cells [2]; Prestwick and Enzo collections): significant increases in Dendra2-LC3 GFP fluorescence

C[C@@H]1C[C@@H]([C@H](O)CC2CC(=O)NC(=O)C2)C(=O)[C@@H](C)C1 [cycloheximide]
Phase II result, Dendra2-LC3 degradation kinetics (Dendra2-LC3 HEK cells [1]): failed to affect Dendra2-LC3 degradation kinetics
Phase I result, normalized GFP intensity (T15/T0) (Dendra2-LC3 HEK cells [2]; Prestwick and Enzo collections): potential autophagy inducers

OC[C@H]1O[C@H](O[C@H]2O[C@H](CO)[C@@H](O)[C@H](O)[C@H]2O)[C@H](O)[C@@H](O)[C@@H]1O [trehalose]
Hit class in screen of Enzo Autophagy compound library (9H RFP/0H RFP) (Dendra2-LC3 HEK cells [1]): failure to markedly affect flux
